The test deals with 11-7 cell line (NS2-5B) HCV replicon. Put plainly: Replicon ELISA cell based assay, genotype 1b, 11-7 cell line (NS2-5B). Particulars: Hepatitis C virus; 11-7 cell line (NS2-5B) used instead of the 5-15 cell line. Further details: species or system HCV genotype 1b. How it is done: Replicon ELISA Cell Based Assay
100 μL of medium containing 10% FCS were added to each well of clear, flat-bottomed 96 well microplates, excepting wells in the top row. Test compound was diluted in assay medium to twice the final required starting concentration from a 40 mM stock solution in DMSO. 200 μL of the starting dilution were introduced into two wells each in the top row and doubling dilutions made down the plate by the sequential transfer of 100 μL aliquots with thorough mixing in the wells; the final 100 μL were discarded. The two bottom rows were not used for compound dilutions. […]
Following incubation, the assay medium was aspirated from the plates. […] The reaction was stopped by the addition of 25 μL per well of 2 M sulphuric acid and the plates were read at 490 nm on a Fluostar Optima spectrophotometer. […]
The absorbance values from all compound-free wells that had received both primary and secondary antibodies were averaged to obtain a positive control value. The mean absorbance value from the compound-free wells that had not received the primary antibody was used to provide the negative (background) control value. The readings from the duplicate wells at each compound concentration were averaged and, after the subtraction of the mean background from all values, were expressed as a percentage of the positive control signal. […]

What is called IC50 is the midpoint of a concentration-inhibition curve. The low end stands for greater potency, the high end for weaker potency. For `COC[C@H]1C[C@@](CC(C)C)(C(=O)O)N(C(=O)c2ccc(C(C)(C)C)c(OC)c2)[C@H]1c1ncc(C)s1` (racemic) [Compound C, rel-(2S,4S,5R)-2-isobutyl-1-(3-methoxy-4-tert-butylbenzoyl)-4-methoxymethyl-5-(5-methyl-1,3-thiazol-2-yl)pyrrolidine-2-carboxylic acid, reference compound], the 50% inhibitory concentration (IC50) lay within 0.15 to 10 µM.
